The text below walks through data of PMC6340882, “Targeting protein kinase CK2 and CDK4/6 pathways with a multi-kinase inhibitor ON108110 suppresses pro-survival signaling and growth in mantle cell lymphoma and T-acute lymphoblastic leukemia” (Oncotarget, 2018).

Data set [1] addresses T1, recombinant CK2α1 kinase domain (Homo sapiens, UniProt P68400).
T1 construct: Amino acid residues 3-335 of CK2α1 were cloned using BamH1 and HindIII into pET28bsmt3-SUMO fusion vector; His6 (N, cleaved yes); SUMO (N, cleaved yes); made in house; host or cells: Escherichia coli BL21-DE3 (RIL)
In words: Differential scanning fluorimetry (DSF). The class given is binding. The conditions noted are these: apo protein Tm 58°C. As for the experimental part: 1μM of in-house purified recombinant CK2α1 was diluted in protein buffer and added to a final concentration of 1X of Sypro Orange Dye in the presence of DMSO or increasing concentrations of ON108110. Following a 20 min incubation at room temperature, 20μl samples were pipetted into a clear MicroAmp Fast 96-well Reaction PCR plates and sealed with MicroAmp Optical Adhesive Film. The assay was performed using a StepOne Plus RT-PCR instrument (Applied Biosystems) using an increasing temperature gradient of 20 to 90°C in 0.2°C increments using a 200- millisecond stabilization delay. Florescence readings were acquired with excitation and emission wavelengths of 580±10 nm and 624±14 nm respectively. A customized analysis program (Step One Plus Protein Thermal Shift Software) was used to calculate the Tm from each fluorescence profile (Boltzmann method) and the Tm of the fluorescence (derivative method). Derivative Tm values were obtained from the top of the peak in the derivative plot, while the Boltzmann Tm values calculated from the inflection point of the fluorescence plot.

Another data set deals with CK2α2 (Homo sapiens, UniProt P19784). In words: In vitro kinase assay with recombinant protein (32P-ATP, filtermat). The class given is biochemical. The note with it: recombinant CK2α2, independent in vitro kinase assay, 20μM ATP. As to the method: (§1) (B) Structure of ON108110. (C) Calculation of IC50 values against CDK4 and CDK6 and (D) CK2α1 and CK2α2 by ON108110. Recombinant proteins were incubated with the indicated concentrations of ON108110 and subjected to in vitro kinase assays as described in the materials and methods section. Values obtained were plotted as a function of log drug concentration. IC50 values were determined by performing sigmoidal non-linear regression with a variable slope.
(§2) Recombinant CDK4/CYCLIN D1 or CK2α1 were mixed with their respective synthetic peptide substrates (10ng) and incubated with DMSO or increasing concentrations of ON108110 in 20μl kinase buffer [50mM Tris-HCl (pH 7.5), 10mM MgCl2, 1mM EGTA, 2mM DTT and 0.01% NP-40] for 30 min. at room temperature. Kinase reactions were carried out for 20 min at 30°C in the presence of 5μl of substrate-ATP mixture (1μg RB, 20μM ATP, 20μCi γ-^32P-ATP). […] The filtermat was air-dried, blocked with methanol for 2 minutes followed by three washes with 75mM phosphoric acid. The filtermat was then air-dried and analyzed using a phosphoimager.

In a further data set the target is CK2α1 (Homo sapiens, UniProt P68400). The data set is described as above. The class given is biochemical. The note with it: recombinant CK2α1, independent in vitro kinase assay, 20μM ATP. As to the method:
as §1, §2

The next data set addresses CDK4 (Homo sapiens, UniProt P11802). The description is as above. Format: biochemical. The conditions noted are these: recombinant CDK4, independent in vitro kinase assay, 20μM ATP. As to the method: as §1, §2
A further data set deals with Granta-519 cells. As to the kind of experiment: Caspase Glo 3/7 caspase activation assay. The class given is cell-based, human. The note with it: increasing concentrations, 24 hours. As to the method: Figure 5 Modulation of cell cycle expression and induction of apoptosis in ON 108110-treated MCL and T-ALL cell lines (A) CEM and Granta-519 cells were treated with either DMSO or increasing concentrations of ON108110 (0.5-2.0μM) for 24 hours. Cell cycle analysis was performed using propidium iodide staining. (B) CEM, HBL-2, RS4-11 and Granta-519 cells were treated with either DMSO (vehicle) or increasing concentrations of ON108110 (0.5-2.0 μM) for 24 hours and stained with Annexin V/DAPI (C) Graphical representation of apoptosis induced as shown in B. (D) Granta-519 cells were treated with increasing concentrations of ON108110 for 24 hours. Caspase activation and viability were measured using the Caspase Glo 3/7 and Cell Titer Blue assay kits, respectively. TEXT PRINTED IN THE PICTURE: (B) DMSO: 1.31; 2.34; 94.5; 1.65 | (B) ON108110: 2.21 (0.5μM); 4.32 (0.5μM); 91.1 (0.5μM); 2.37 (0.5μM); 1.64 (1.0μM); 15 (1.0μM); 80.8 (1.0μM); 2.62 (1.0μM); 4.83 (2.0μM); 60.7 (2.0μM); 28.9 (2.0μM); 5.58 (2.0μM) DOUBTS OF THE COPYIST ABOUT THIS PICTURE: Panel B: the quadrant numbers in the Annexin V/DAPI plots have no printed measure or unit. […]
Caspase-3/7 activation was measured using the Caspase-Glo® 3/7 kit as recommended by the manufacturer (Promega).

The next data set concerns hPBMC. As to the kind of experiment: Growth inhibition (GI50), Cell Titer Blue. Format: cell-based, human. The conditions noted are these: normal human cells (Table 1). As to the method: (§3) Cell lines were cultured in RPMI-1640 medium (Thermo Scientific) supplemented with 10% heat inactivated FBS and penicillin-streptomycin at 37°C under humidified conditions and 5% CO2. All cell lines tested negative for mycoplasma. […] Compounds were added 24 hrs post-plating at the indicated concentrations. Cell counts were determined from duplicate wells 96 hrs post-treatment using the Cell Titer Blue assay in conjunction with the GloMax plate reader (Promega).
(§4) Peripheral blood samples were obtained from patients at the Icahn School of Medicine at Mount Sinai with informed and written consent for tissue banking following a protocol approved by the Institutional Review Board (MSSM IRB#11-1669) and in accordance with the Declaration of Helsinki. Peripheral blood mononuclear cells were pelleted by low-speed centrifugation, resuspended in media composed of 90% fetal bovine serum (FBS) and 10% DMSO (Sigma), frozen slowly in the vapor phase of liquid nitrogen in multiple cryovials, and stored in liquid nitrogen.
Background: Resazurin is reduced to fluorescent resorufin, in cell work by metabolically active cells.

Data set [2] is described as follows: Growth inhibition (GI50), Cell Titer Blue. Format: cell-based, human. The note with it: normal human peripheral blood mononuclear cells (hPBMC); hPBMC, Normal Human Peripharal Mononuclear Cells; 96 hrs post-treatment. As for the experimental part:
as §3, §4

SMILES strings stand for the structures.

T1 sequence (P68400 3-335): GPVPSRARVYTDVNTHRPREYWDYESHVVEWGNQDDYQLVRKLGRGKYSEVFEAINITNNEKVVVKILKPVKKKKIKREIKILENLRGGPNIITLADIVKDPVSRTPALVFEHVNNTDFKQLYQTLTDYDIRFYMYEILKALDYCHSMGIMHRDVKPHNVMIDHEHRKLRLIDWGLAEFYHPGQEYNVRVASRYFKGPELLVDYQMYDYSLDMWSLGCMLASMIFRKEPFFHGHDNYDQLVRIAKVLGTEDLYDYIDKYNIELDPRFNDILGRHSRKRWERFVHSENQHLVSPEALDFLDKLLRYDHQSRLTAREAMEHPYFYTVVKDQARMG
CDK4, sequence (P11802 whole entry): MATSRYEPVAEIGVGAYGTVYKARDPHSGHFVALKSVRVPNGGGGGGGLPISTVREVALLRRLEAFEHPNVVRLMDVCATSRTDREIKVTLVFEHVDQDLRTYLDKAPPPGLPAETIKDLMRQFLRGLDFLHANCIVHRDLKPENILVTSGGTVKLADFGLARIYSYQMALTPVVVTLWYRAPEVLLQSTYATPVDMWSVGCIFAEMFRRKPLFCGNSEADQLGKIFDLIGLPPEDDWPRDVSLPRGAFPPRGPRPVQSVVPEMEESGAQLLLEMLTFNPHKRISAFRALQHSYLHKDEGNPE
CDK4, sequence (P24385 whole entry partner): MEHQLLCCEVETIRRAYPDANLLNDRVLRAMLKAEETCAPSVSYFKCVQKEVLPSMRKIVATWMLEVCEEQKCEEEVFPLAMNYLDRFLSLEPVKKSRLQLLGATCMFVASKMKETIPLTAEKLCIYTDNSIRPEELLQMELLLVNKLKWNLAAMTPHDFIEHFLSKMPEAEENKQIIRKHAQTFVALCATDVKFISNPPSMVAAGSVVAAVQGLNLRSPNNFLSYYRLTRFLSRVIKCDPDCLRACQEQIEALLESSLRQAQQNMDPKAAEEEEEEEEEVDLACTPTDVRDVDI
CK2α1, sequence (P68400 whole entry): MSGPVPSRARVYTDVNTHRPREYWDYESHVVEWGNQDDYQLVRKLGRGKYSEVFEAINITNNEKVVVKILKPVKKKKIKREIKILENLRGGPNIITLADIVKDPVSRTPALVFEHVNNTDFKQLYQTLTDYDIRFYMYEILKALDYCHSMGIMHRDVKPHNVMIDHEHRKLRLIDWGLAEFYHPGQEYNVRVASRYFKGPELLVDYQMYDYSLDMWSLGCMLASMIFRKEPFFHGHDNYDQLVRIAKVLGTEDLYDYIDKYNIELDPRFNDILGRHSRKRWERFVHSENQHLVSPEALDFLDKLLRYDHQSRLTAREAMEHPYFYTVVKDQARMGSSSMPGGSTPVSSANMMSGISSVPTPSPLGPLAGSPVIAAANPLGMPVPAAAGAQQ
CK2α2, sequence (P19784 whole entry): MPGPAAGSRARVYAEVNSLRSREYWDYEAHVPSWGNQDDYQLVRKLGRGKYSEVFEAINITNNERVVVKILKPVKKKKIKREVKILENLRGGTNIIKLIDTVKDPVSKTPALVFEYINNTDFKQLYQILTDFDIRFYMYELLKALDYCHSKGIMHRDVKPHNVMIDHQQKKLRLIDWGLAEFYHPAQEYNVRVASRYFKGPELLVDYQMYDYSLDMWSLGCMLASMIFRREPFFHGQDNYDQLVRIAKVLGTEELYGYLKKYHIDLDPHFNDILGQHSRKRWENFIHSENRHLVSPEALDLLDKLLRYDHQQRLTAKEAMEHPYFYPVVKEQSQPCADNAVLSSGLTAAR

For the compound `CC(=O)Oc1ccc(/C=C2\Sc3ccc(F)cc3NC2=O)cc1[N+](=O)[O-]` [ON108110], the “melting temperature (Tm) of CK2α1 with compound” value in data set [1] is 64.8 °C. Besides, the “shift in the Tm of CK2α1” value in data set [1] was determined as 6.8 °C. Further, the 50% inhibitory concentration (IC50) – broadly, the concentration that gives 50% inhibition – on CK2α2 was determined as 2 nM; on CK2α1, 3 nM; on CDK4, 6 nM. Moreover, in the data set with Granta-519 cells, the “Caspase activity and PARP cleavage” value is given as “increased as a function of cell death”. Also, the “cytotoxicity towards normal human cells” value with hPBMC is recorded as “little or no cytotoxicity”. Also, the GI50 (usually the concentration that inhibits growth by half) at 96 h in data set [2] was over 5000 nM.
